System: vTreg53 TCR
Test: vTreg53 TCR tetramer staining of single peptide-A^b yeast clone
Type: binding, murine
Settings: 500 nM final tetramer concentration
Experimental: Figure 2. Identification of surrogate peptides recognized by the vTreg53 TCR. (A) The vTreg53 TCR was used to screen and isolate the peptide-MHC yeast display. vTreg53 TCR tetramer staining (500 nM of TCR-SA) together with c-Myc staining is shown for the naïve library and four consecutive rounds of selection. […] (C) Positional frequency representation from the deep sequencing of the third round of selection with vTreg53. (D) Positional frequency matrix based on the deep sequencing of the fourth round of the peptide-MHC yeast selection. […] Data shown are representative of at least two independent experiments. Figure 2—figure supplement 1. Evolution of peptide-Ab yeast display. […] TEXT PRINTED IN THE PICTURE: (B) Fat7: Fraction: 0.596 | (B) TMYKGPHAVAAFT: Fraction: 0.369 | (B) LMFKGPHAVAAFT: Fraction: 0.029 | (B) FTYKNPRPVAATG: Fraction: 0.006 | (B) Fat15: Fraction: 0.000 | (B) TMYKNPRPVAATG: Fraction: 0.000 | (B) TMYKNPRPVAATG: Fraction: 0.000 DOUBTS OF THE COPYIST ABOUT THIS PICTURE: Panel B: the Fraction values are shares of sequencing reads from a selection, so it is uncertain whether they count as a result for a substance. […]
Yeast were passaged in SDCAA and induced with SGCAA and selected with streptavidin (SA) - coated magnetic MACS beads (Miltenyi) coated with biotinylated TCR. […] Peptide-A^b surface expression was monitored with anti-c-myc (Cell Signaling) antibody staining. […]

With LMFKGPHAVQAVG [Fat7] the “vTreg53 TCR-SA tetramer staining” value was “positive”.

Reference: publication PMC7440915, “Discovery of surrogate agonists for visceral fat Treg cells that modulate metabolic indices in vivo” (eLife, 2020)
